Assay results reported in ChEMBL document CHEMBL1828567, “2-Phenyl and 2-heterocyclic-4-(3-(pyridin-2-yl)-1H-pyrazol-4-yl)pyridines as inhibitors of TGF-β1 and activin A signalling” (Bioorg Med Chem Lett, 2011).

Target: T1, Activin receptor type-1B (Homo sapiens, UniProt P36896)
T1 sequence (P36896 whole entry): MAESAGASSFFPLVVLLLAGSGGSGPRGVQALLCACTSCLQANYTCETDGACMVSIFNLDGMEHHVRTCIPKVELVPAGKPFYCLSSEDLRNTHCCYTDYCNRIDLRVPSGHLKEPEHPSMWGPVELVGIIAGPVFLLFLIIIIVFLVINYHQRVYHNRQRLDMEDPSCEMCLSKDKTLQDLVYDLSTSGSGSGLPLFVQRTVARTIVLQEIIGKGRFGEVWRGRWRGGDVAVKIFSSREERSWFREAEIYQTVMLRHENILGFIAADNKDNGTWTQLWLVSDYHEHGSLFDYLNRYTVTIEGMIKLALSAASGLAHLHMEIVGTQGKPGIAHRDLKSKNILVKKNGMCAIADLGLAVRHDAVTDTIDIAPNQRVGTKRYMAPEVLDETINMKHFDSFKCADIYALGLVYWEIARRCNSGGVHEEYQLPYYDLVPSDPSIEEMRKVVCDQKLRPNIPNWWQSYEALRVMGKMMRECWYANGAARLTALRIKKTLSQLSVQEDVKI
Assay: Inhibition of Activin A in human HEK293 cells transfected with luciferase and FAST-2 gene expression vector A3-LUX after 16 hrs by luciferase reporter gene assay
Assay type: cell-based

| Structure (SMILES) | IC50 |
| --- | --- |
| O=C(NC1CCOCC1)c1ccc(-c2cc(-c3c[nH]nc3-c3ccccn3)ccn2)cc1 | > 1000 nM |

Target: T2, TGF-beta receptor type-1 (Homo sapiens, UniProt P36897)
T2 sequence (P36897 whole entry): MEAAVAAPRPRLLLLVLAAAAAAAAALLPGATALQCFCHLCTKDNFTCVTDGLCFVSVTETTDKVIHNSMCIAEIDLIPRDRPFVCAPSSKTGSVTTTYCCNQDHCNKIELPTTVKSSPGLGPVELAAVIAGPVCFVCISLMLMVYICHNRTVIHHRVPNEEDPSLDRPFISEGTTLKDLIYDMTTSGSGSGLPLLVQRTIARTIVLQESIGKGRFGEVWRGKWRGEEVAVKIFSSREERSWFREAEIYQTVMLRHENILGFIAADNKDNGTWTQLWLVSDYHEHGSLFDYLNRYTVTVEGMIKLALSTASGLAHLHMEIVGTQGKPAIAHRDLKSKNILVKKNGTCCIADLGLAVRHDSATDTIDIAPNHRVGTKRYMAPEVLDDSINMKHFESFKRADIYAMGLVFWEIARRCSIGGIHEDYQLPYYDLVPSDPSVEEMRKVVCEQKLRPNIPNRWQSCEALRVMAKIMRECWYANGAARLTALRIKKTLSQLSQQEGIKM
Assay: Inhibition of TGF-beta1 signaling in human HEK293 cells transfected with luciferase and FAST-2 gene expression vector A3-LUX after 16 hrs by luciferase reporter gene assay
Assay type: cell-based

| Structure (SMILES) | IC50 |
| --- | --- |
| Cn1cc(-c2cc(-c3c[nH]nc3-c3ccccn3)ccn2)cn1 | 68 nM |
| CN1CCN(c2ccc(-c3cc(-c4c[nH]nc4-c4ccccn4)ccn3)cn2)CC1 | 32 nM |
| c1ccc(-c2n[nH]cc2-c2ccnc(-n3ccnc3)c2)nc1 | 88 nM |
| CN(C)CCOc1ccc(-c2cc(-c3c[nH]nc3-c3ccccn3)ccn2)cc1 | 19 nM |
| CN(C)CCCOc1ccc(-c2cc(-c3c[nH]nc3-c3ccccn3)ccn2)cn1 | 11 nM |
| c1ccc(-c2n[nH]cc2-c2ccnc(-n3cccn3)c2)nc1 | 77 nM |
